The target of one assay is T1, BRAF V600E (Homo sapiens, UniProt P15056, V600E).
T1 construct: expressed in transfected cells
The assay can be described thus: Cellular assay of target protein degradation, T-Rex 293 cells stably transfected with HA-BRAF_V600E (HA immunofluorescence, high content imaging). It is filed as cell-based. The conditions noted are these: T-Rex 293 HA-BRAF V600E; for DC50: half maximal degradation, read-out: BRaf V600E DC50; for Dmax: maximum degradation observed. The method, boiled down: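 Doxycycline-induced (1 ng/mL) T-Rex 293 cells expressing HA-BRAF V600E treated 24 h at 37 °C with compound at 1 μM to 0.1 nM final in 0.1% DMSO. Remaining HA-tagged protein quantified by fixed-cell anti-HA immunofluorescence and high-content imaging; DC50 and Dmax (% of control) derived.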

Another assay addresses T2, BRAF G466V (Homo sapiens, UniProt P15056, G466V).
T2 construct: expressed in transfected cells
The assay can be described thus: Cellular assay of target protein degradation, T-Rex 293 cells stably transfected with HA-BRAF G466V (HA immunofluorescence, high content imaging). In kind it is cell-based. The conditions noted are these: T-Rex 293 HA-BRAF G466V; for DC50: half maximal degradation, read-out: BRaf G466V DC50; for Dmax: maximum degradation observed. The method, boiled down: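 Doxycycline-induced (0.75 ng/mL) cells treated 24 h at 37 °C with compound from 30 nM to 3 pM (0.1% DMSO). After fixation and permeabilisation, HA-tagged BRAF G466V immunostained and quantified by high-content imaging. DC50 and Dmax (percent of control) derived.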

T1 sequence (P15056 whole entry V600E): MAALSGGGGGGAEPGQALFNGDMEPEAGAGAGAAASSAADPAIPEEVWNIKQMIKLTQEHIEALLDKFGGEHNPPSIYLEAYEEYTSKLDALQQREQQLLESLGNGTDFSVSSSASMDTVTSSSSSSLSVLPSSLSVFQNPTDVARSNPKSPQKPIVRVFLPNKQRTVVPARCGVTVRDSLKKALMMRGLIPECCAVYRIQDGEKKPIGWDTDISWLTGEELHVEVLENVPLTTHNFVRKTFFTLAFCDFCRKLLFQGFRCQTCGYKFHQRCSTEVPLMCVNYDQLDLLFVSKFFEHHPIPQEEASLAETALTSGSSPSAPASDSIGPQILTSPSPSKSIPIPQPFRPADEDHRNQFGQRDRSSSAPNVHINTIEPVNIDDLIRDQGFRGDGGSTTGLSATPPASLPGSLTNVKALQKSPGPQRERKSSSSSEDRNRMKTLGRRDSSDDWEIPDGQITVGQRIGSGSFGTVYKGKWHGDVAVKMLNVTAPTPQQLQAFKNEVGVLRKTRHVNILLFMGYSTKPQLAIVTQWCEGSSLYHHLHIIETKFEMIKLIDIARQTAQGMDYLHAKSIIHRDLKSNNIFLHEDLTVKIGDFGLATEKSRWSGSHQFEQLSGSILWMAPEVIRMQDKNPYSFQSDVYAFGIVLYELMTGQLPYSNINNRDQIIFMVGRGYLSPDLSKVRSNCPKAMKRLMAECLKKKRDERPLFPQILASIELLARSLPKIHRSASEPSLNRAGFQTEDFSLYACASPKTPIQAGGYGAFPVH
T2 sequence (P15056 whole entry G466V): as the sequence (P15056 whole entry V600E) above, with G466V, E600V counted along it

In the case of `O=C1CC[C@H](N2Cc3cc(C4CN(CC5CCN(c6ccc(-c7cnc8[nH]cc(C(=O)c9c(F)ccc(NS(=O)(=O)N%10CC[C@@H](F)C%10)c9F)c8c7)cc6)CC5)C4)ccc3C2=O)C(=O)N1` [Compound 83, (3R)-N-{3-[5-(4-{4-[(3-{2-[(3S)-2,6-dioxopiperidin-3-yl]-1-oxo-2,3-dihydro-1H-isoindol-5-yl}azetidin-1-yl)methyl]piperidin-1-yl}phenyl)-1H-pyrrolo[2,3-b]pyridine-3-carbonyl]-2,4-difluorophenyl}-3-fluoropyrrolidine-1-sulfonamide], at BRAF V600E, the DC50 lay within 50 to 500 nM and the Dmax is above 70%. Also, at BRAF G466V, the DC50 is below 1 nM and the greatest degradation seen (Dmax) was 35 to 70%.

With `O=C1CC[C@@H](N2Cc3cc(C4CN(CC5CCN(c6ccc(-c7cnc8[nH]cc(C(=O)c9c(F)ccc(NS(=O)(=O)N%10CC[C@@H](F)C%10)c9F)c8c7)cc6)CC5)C4)ccc3C2=O)C(=O)N1` [Compound 84, (3R)-N-{3-[5-(4-{4-[(3-{2-[(3R)-2,6-dioxopiperidin-3-yl]-1-oxo-2,3-dihydro-1H-isoindol-5-yl}azetidin-1-yl)methyl]piperidin-1-yl}phenyl)-1H-pyrrolo[2,3-b]pyridine-3-carbonyl]-2,4-difluorophenyl}-3-fluoropyrrolidine-1-sulfonamide], at BRAF V600E, the 50% degradation concentration (DC50) was in the range of 5 to 50 nM and the maximal degradation (Dmax) lay in the range of 35 to 70%. Besides, on BRAF G466V, the 50% degradation concentration (DC50) was below 1 nM and the maximal degradation (Dmax) was above 70%.

On to `O=C1CC[C@H](N2Cc3cc(N4CC(CN5C[C@@H]6CN(c7ccc(-c8cnc9[nH]cc(C(=O)c%10c(F)ccc(NS(=O)(=O)N%11CC[C@@H](F)C%11)c%10F)c9c8)cc7)C[C@@H]6C5)C4)ccc3C2=O)C(=O)N1` [Compound 85, (3R)-N-[3-(5-{4-[(3aR,6aS)-5-[(1-{2-[(3S)-2,6-dioxopiperidin-3-yl]-1-oxo-2,3-dihydro-1H-isoindol-5-yl}azetidin-3-yl)methyl]-octahydropyrrolo[3,4-c]pyrrol-2-yl]phenyl}-1H-pyrrolo[2,3-b]pyridine-3-carbonyl)-2,4-difluorophenyl]-3-fluoropyrrolidine-1-sulfonamide], for which, at BRAF V600E, the half-maximal degradation concentration (DC50) is below 5 nM and the greatest degradation seen (Dmax) lay within 35 to 70%. Moreover, on BRAF G466V, the DC50 lay within 1 to 10 nM and the greatest degradation seen (Dmax) is above 70%.

Regarding `O=C1CC[C@@H](N2Cc3cc(N4CC(CN5C[C@@H]6CN(c7ccc(-c8cnc9[nH]cc(C(=O)c%10c(F)ccc(NS(=O)(=O)N%11CC[C@@H](F)C%11)c%10F)c9c8)cc7)C[C@@H]6C5)C4)ccc3C2=O)C(=O)N1` [Compound 86, (3R)-N-[3-(5-{4-[(3aR,6aS)-5-[(1-{2-[(3R)-2,6-dioxopiperidin-3-yl]-1-oxo-2,3-dihydro-1H-isoindol-5-yl}azetidin-3-yl)methyl]-octahydropyrrolo[3,4-c]pyrrol-2-yl]phenyl}-1H-pyrrolo[2,3-b]pyridine-3-carbonyl)-2,4-difluorophenyl]-3-fluoropyrrolidine-1-sulfonamide], at BRAF V600E, the half-maximal degradation concentration (DC50) lay in the range of 5 to 50 nM and the Dmax fell in the range of 35 to 70%. In addition, on BRAF G466V, the DC50 is 1 to 10 nM and the Dmax is above 70%.

In the case of `O=C1CC[C@H](N2Cc3cc(C4CCN(CC5CCN(c6ccc(-c7cnc8[nH]cc(C(=O)c9c(F)ccc(NS(=O)(=O)N%10CC[C@@H](F)C%10)c9F)c8c7)cc6F)CC5)CC4)ccc3C2=O)C(=O)N1` [Compound 87, (3R)-N-{3-[5-(4-{4-[(4-{2-[(3S)-2,6-dioxopiperidin-3-yl]-1-oxo-2,3-dihydro-1H-isoindol-5-yl}piperidin-1-yl)methyl]piperidin-1-yl}-3-fluorophenyl)-1H-pyrrolo[2,3-b]pyridine-3-carbonyl]-2,4-difluorophenyl}-3-fluoropyrrolidine-1-sulfonamide], the half-maximal degradation concentration (DC50) was below 5 nM at BRAF V600E and below 1 nM at BRAF G466V. The greatest degradation seen (Dmax) on BRAF V600E is 35 to 70%; at BRAF G466V it was above 70%.

With `O=C1CC[C@@H](N2Cc3cc(C4CCN(CC5CCN(c6ccc(-c7cnc8[nH]cc(C(=O)c9c(F)ccc(NS(=O)(=O)N%10CC[C@@H](F)C%10)c9F)c8c7)cc6F)CC5)CC4)ccc3C2=O)C(=O)N1` [Compound 88, (3R)-N-{3-[5-(4-{4-[(4-{2-[(3R)-2,6-dioxopiperidin-3-yl]-1-oxo-2,3-dihydro-1H-isoindol-5-yl}piperidin-1-yl)methyl]piperidin-1-yl}-3-fluorophenyl)-1H-pyrrolo[2,3-b]pyridine-3-carbonyl]-2,4-difluorophenyl}-3-fluoropyrrolidine-1-sulfonamide], at BRAF V600E, the DC50 was below 5 nM and the maximal degradation (Dmax) is 35 to 70%. Also, on BRAF G466V, the 50% degradation concentration (DC50) was below 1 nM and the Dmax is above 70%.

As for `O=C1CCC(N2Cc3cc(OCCN4CC5(C4)CN(c4ccc(-c6cnc7[nH]cc(C(=O)c8c(F)ccc(NS(=O)(=O)N9CC[C@@H](F)C9)c8F)c7c6)cc4)C5)ccc3C2=O)C(=O)N1` (stereo partly drawn) [Compound 89, (3R)-N-[3-(5-{4-[6-(2-{[2-(2,6-dioxopiperidin-3-yl)-1-oxo-2,3-dihydro-1H-isoindol-5-yl]oxy}ethyl)-2,6-diazaspiro[3.3]heptan-2-yl]phenyl}-1H-pyrrolo[2,3-b]pyridine-3-carbonyl)-2,4-difluorophenyl]-3-fluoropyrrolidine-1-sulfonamide], on BRAF V600E, the DC50 is below 5 nM and the greatest degradation seen (Dmax) fell in the range of 35 to 70%. Besides, on BRAF G466V, the DC50 was below 1 nM and the Dmax lay within 35 to 70%.

Turning to `O=C1CCC(N2Cc3cc(N4CCN(C[C@H](O)Cc5ccc(-c6cnc7[nH]cc(C(=O)c8c(F)ccc(NS(=O)(=O)N9CC[C@@H](F)C9)c8F)c7c6)cc5)CC4)ccc3C2=O)C(=O)N1` (stereo partly drawn) [Compound 90, (3R)—N-[3-[5-[4-[(2R)-3-[4-[2-(2,6-dioxo-3-piperidyl)-1-oxo-isoindolin-5-yl]piperazin-1-yl]-2-hydroxy-propyl]phenyl]-1H-pyrrolo[2,3-b]pyridine-3-carbonyl]-2,4-difluoro-phenyl]-3-fluoro-pyrrolidine-1-sulfonamide], at BRAF V600E, the 50% degradation concentration (DC50) fell in the range of 5 to 50 nM and the greatest degradation seen (Dmax) lay in the range of 35 to 70%. For the same compound, at BRAF G466V, the 50% degradation concentration (DC50) was 1 to 10 nM and the Dmax was 35 to 70%.

As for `O=C1CCC(N2Cc3cc(N4CCN(CC5CN(c6ncc(-c7cnc8[nH]cc(C(=O)c9c(F)ccc(NS(=O)(=O)N%10CC[C@@H](F)C%10)c9F)c8c7)cn6)C5)CC4)ccc3C2=O)C(=O)N1` (stereo partly drawn) [Compound 91, (3R)-N-[3-(5-{2-[3-({4-[2-(2,6-dioxopiperidin-3-yl)-1-oxo-2,3-dihydro-1H-isoindol-5-yl]piperazin-1-yl}methyl)azetidin-1-yl]pyrimidin-5-yl}-1H-pyrrolo[2,3-b]pyridine-3-carbonyl)-2,4-difluorophenyl]-3-fluoropyrrolidine-1-sulfonamide], on BRAF V600E, the DC50 lay in the range of 5 to 50 nM and the Dmax fell in the range of 35 to 70%. Further, on BRAF G466V, the DC50 lay within 1 to 10 nM and the Dmax is above 70%.

As to `O=C1CCC(N2Cc3cc(N4CCC(CN5CC6(CCN(c7ccc(-c8cnc9[nH]cc(C(=O)c%10c(F)ccc(NS(=O)(=O)N%11CC[C@@H](F)C%11)c%10F)c9c8)cn7)C6)C5)CC4)ccc3C2=O)C(=O)N1` (stereo partly drawn) [Compound 92, (3R)-N-[3-(5-{6-[2-({1-[2-(2,6-dioxopiperidin-3-yl)-1-oxo-2,3-dihydro-1H-isoindol-5-yl]piperidin-4-yl}methyl)-2,6-diazaspiro[3.4]octan-6-yl]pyridin-3-yl}-1H-pyrrolo[2,3-b]pyridine-3-carbonyl)-2,4-difluorophenyl]-3-fluoropyrrolidine-1-sulfonamide], on BRAF V600E, the DC50 is below 5 nM and the greatest degradation seen (Dmax) fell in the range of 35 to 70%. In addition, at BRAF G466V, the 50% degradation concentration (DC50) lay within 1 to 10 nM and the greatest degradation seen (Dmax) is above 70%.

Regarding `O=C1CCC(N2Cc3cc(N4CCC(CN5CC6(CCN(c7ncc(-c8cnc9[nH]cc(C(=O)c%10c(F)ccc(NS(=O)(=O)N%11CC[C@@H](F)C%11)c%10F)c9c8)cn7)C6)C5)CC4)ccc3C2=O)C(=O)N1` (stereo partly drawn) [Compound 93, (3R)-N-[3-(5-{2-[2-({1-[2-(2,6-dioxopiperidin-3-yl)-1-oxo-2,3-dihydro-1H-isoindol-5-yl]piperidin-4-yl}lmethyl)-2,6-diazaspiro[3.4]octan-6-yl]pyrimidin-5-yl}-1H-pyrrolo[2,3-b]pyridine-3-carbonyl)-2,4-difluorophenyl]-3-fluoropyrrolidine-1-sulfonamide], the DC50 at BRAF V600E is below 5 nM; at BRAF G466V it was 1 to 10 nM. Further, the Dmax was 35 to 70% on BRAF V600E and above 70% on BRAF G466V.

For `O=C1CCC(N2Cc3cc(C4CCN(CC5CCN(c6c(F)cc(-c7cnc8[nH]cc(C(=O)c9c(F)ccc(NS(=O)(=O)N%10CC[C@@H](F)C%10)c9F)c8c7)cc6F)CC5)CC4)ccc3C2=O)C(=O)N1` (stereo partly drawn) [Compound 94, (3R)-N-[3-(5-{4-[4-({4-[2-(2,6-dioxopiperidin-3-yl)-1-oxo-2,3-dihydro-1H-isoindol-5-yl]piperidin-1-yl}methyl)piperidin-1-yl]-3,5-difluorophenyl}-1H-pyrrolo[2,3-b]pyridine-3-carbonyl)-2,4-difluorophenyl]-3-fluoropyrrolidine-1-sulfonamide], at BRAF V600E, the DC50 is 5 to 50 nM and the Dmax was 35 to 70%. Moreover, at BRAF G466V, the half-maximal degradation concentration (DC50) was 1 to 10 nM and the Dmax was above 70%.

Source of the values: patent US12180193B2, “Accelerating fibrosarcoma protein degrading compounds and associated methods of use” (Arvinas Operations, Inc., priority 2020, dated 2024).
